According to patent publication US6638919B2, “Antiviral purine derivatives” (University College Cardiff Consultants Limited, priority 2001, dated 2003):
Structures can show the parent of a compound that is named as a salt. Where two headings read alike, the source gives them in different places.

Experiments:
[1] = tested on: HIV-2; assay: Inhibition of HIV-2 in CEM.TK- cells; type: cell-based; settings: read-out: HIV2 CEM. TK.
Experimental: Cells were infected with HIV-1 as previously described [Balzarini et al. AIDS (1991), 5, 21-28]. Briefly, 5×10^5 cells per milliliter were infected with HIV-1 or HV-2 at 100 CClD50 (50% cell culture infective dose) per milliliter of cell suspension. Then 100 μL of the infected cell suspension was transferred to microtiter plate wells and mixed with 100 μL of the appropriate dilutions of the test compounds. After 4 days giant cell formation was recorded microscopically in the HIV-infected cell cultures [CEM].
HIV2CEM.TK- EC50 μM for inhibition of IV-2 in CEM=cells

[2] = tested on: HIV-2; assay: Inhibition of HIV-2 giant cell formation in CEM cells; type: cell-based
Experimental: (§1) Then 100 μL of the infected cell suspension was transferred to microtiter plate wells and mixed with 100 μL of the appropriate dilutions of the test compounds.
HIV1 CEM: EC50 in μM for inhibition of […] in CEM cells.
HIV2 CEM: EC50 in μM for inhibition of HIV-2 in CEM cells

[3] = tested on: HIV-1; assay: Inhibition of HIV-1 giant cell formation in CEM cells; type: cell-based
Experimental: as §1
HIV 1 CEM: EC50 in μM for inhibition of HIV1 in CEM cells

[4] = tested on: CEM cells; assay: Toxicity to mock-infected CEM cells (CC50); type: cell-based; settings: Table III; toxicity to CEM cells; read-out: CC50 CEN
Experimental: as §1
(§2) CC50 CEM: CC50 in μM for toxicity to CEM cells.
(§3) CC50 CEM: CC50 μM for toxicity to CEM cells

[5] = Biological stability in heparinised human plasma; settings: heparinised human plasma, 37° C.
Experimental: Each compound was incubated in normal heparinised human plasma at 37° C. for 4 hours. […] Drug concentrations were then determined by LC/MS/MS analysis using standard methods.

[6] = Acid stability, dilute HCl pH1, simulated stomach conditions; type: physicochemical; settings: 0.1N HCl pH1, 25° C.
Experimental: Compounds were tested for their stability towards acid-mediated hydrolytic decomposition employing a test designed to simulate stomach conditions. Each compound was incubated in dilute HCl of pH1 for 24 hours at 25° C. 0.3 mg of compound were added to 1 mL of 0.1N HCl at 25° C. HPLC was run immediately for time=0 and at intervals up to approximately 24 hours.

[7] = Toxicity to mock-infected CEM cells (CC50); type: cell-based; settings: human
Experimental: as §1, §2, §3

[8] = tested on: MSV; assay: Inhibition of MSV; type: cell-based; settings: read-out: EC50 MSV
Experimental: EC50 MSV: EC50 μM for inhibition of MSV

[9] = tested on: MSV; assay: Minimum cytotoxic concentration in MSV assay; type: cell-based; parameters: unit not given here; settings: Table III
Description: MCC MSV: minimum cytotoxic concentration in MSV essay.

[10] = Table III, EC50 for inhibition of HIV-2 in CEM.TK- cells
[11] = Table III, EC50 for inhibition of HIV-2 in CEM cells, read-out: HIV2 CBM
[12] = Table III, EC50 for inhibition of HIV1 in CEM cells, read-out: HIV1 CBM
[13] = Table III, toxicity to CEM cells, read-out: CC50 CEN
[14] = Human immunodeficiency virus 2, CCRF-CEM, Table III, EC50 for inhibition of HIV-2 in CEM cells, read-out: HIV2 CBM
[15] = Human immunodeficiency virus 1, CCRF-CEM, Table III, EC50 for inhibition of HIV1 in CEM cells, read-out: HIV1 CBM
[16] = Human immunodeficiency virus 2, CCRF-CEM, 96 h, CEM cells, giant cell formation after 4 days, Tables I and II, read-out: EC50/μM HIV-2 CEM
[17] = Human immunodeficiency virus 1, CCRF-CEM, 96 h, CEM cells, giant cell formation after 4 days, Tables I and II, read-out: EC50/μM HIV-1 CEM
[18] = mock-infected CEM cells, Tables I and II, read-out: CC50/μM CEM

Row | Molecule | EC50 [2, 11] | EC50 [3, 12] | CC50 [4] | MCCMSV [9] | EC50 ([8]; Table III, inhibition of MSV) | also measured
1 | COC(=O)[C@H](C)NP(=O)(OC[C@@H]1C=C[C@H](n2cnc3c(NC4CC4)nc(N)nc32)C1)Oc1ccc(Cl)cc1 (stereo partly drawn) [Compound 1620, (1S,4R)-4-(2-amino-6-cyclopropylamino-9H-purin-^9-yl)-2-cyclopentene-1-methanol O-[4-chlorophenyl-(methoxy-L-alaninyl)]-phosphate] | 0.063 µM | 0.014 µM | 4.7 µM | – | – | EC50 [1, 10]: 0.013 µM
2 | COC(=O)[C@H](C)NP(=O)(OC[C@@H]1C=C[C@H](n2cnc3c(N)ncnc32)O1)Oc1ccccc1 (stereo partly drawn) [Compound 1001, 2′, 3′-dideoxy-2′, 3′-didehydroadenosine-5′-(phenylmethoxyalaninyl) phosphate] | – | – | – | – | – | Half-life [5]: 4.6 h; % Remaining at 4 hours ([5]; 4 hours): 52%; time to disappearance in acid [6]: < 1 min; Compound left (%) ([6]; time 0 hr): 0%; Compound left (%) ([6]; time 17 hr): 0%
3 | COC(=O)[C@@H]1CCCN1P(=O)(OC[C@@H]1C=CC(n2cnc3c(NC4CC4)nc(N)nc32)C1)Oc1ccccc1 (stereo partly drawn) [Compound 1719] | – | – | – | ≧100 | – | EC50 ([2]; Human immunodeficiency virus 2, CCRF-CEM, read-out: HIV2 CBM): 5.5 µM; EC50 ([3]; Human immunodeficiency virus 1, CCRF-CEM, read-out: HIV1 CBM): 4 µM; CC50 at 4 days [7, 13]: 19.4 µM; EC50 [8]: 11.6 µM
4 | COC(=O)C(NP(=O)(OC[C@@H]1C=CC(n2cnc3c(NC4CC4)nc(N)nc32)C1)Oc1ccccc1)C(C)C (stereo partly drawn) [Compound 1666] | – | – | – | >20 | 11.8 µM | EC50 ([1]; Human immunodeficiency virus 2, CEM-TK(-)): 3.5 µM; EC50 [2, 14]: 4 µM; EC50 [3, 15]: 3.5 µM; CC50 [7, 13]: 54.1 µM
5 | C[C@H](NP(=O)(OC[C@@H]1C=C[C@H](n2cnc3c(NC4CC4)nc(N)nc32)C1)Oc1ccccc1)C(=O)OCC1CCCCC1 (stereo partly drawn) [Compound 1708, (1S,4R)-4-(2-amino-6-cyclopropylamino-9H-purin-9-yl)-2cyclopentene-1-methanol O-Phenyl-(cyclobexane-methoxy-L-alaninyl)-phosphate] | 0.16 µM | 0.15 µM | 15.1 µM | >4 | 1.3 µM | –
6 | CC(C)CCCOC(=O)[C@H](C)NP(=O)(OC[C@@H]1C=CC(n2cnc3c(NC4CC4)nc(N)nc32)C1)Oc1ccccc1 (stereo partly drawn) [Compound 1721, (1S,4R)-4-(2-amino-6-cyclopropylamino-9H-purin-9-y))-2-cyclopentene-1-methanol O-[phenyl (4-methyl-1-pentyloxy-L-alaninyl)phosphate] | – | – | – | >4 | 2.2 µM | EC50 [2, 14]: 0.14 µM; EC50 [3, 15]: 0.05 µM; CC50 [7, 13]: 12.5 µM
7 | C[C@@H](NP(=O)(O)OC[C@@H]1C=C[C@H](n2cnc3c(NC4CC4)nc(N)nc32)C1)C(=O)O [Compound 1595, (1S,4R)-4-(2-amino-6-cyclopropylamino-9H-purin-9-yl)-2-cyclopentene-1-methanol O-(D-alaninyl)-phosphate diammonium salt] | 1.2 µM | – | 213 µM | – | – | EC50 [1, 10]: 0.8 µM
8 | CCCCOC(=O)[C@H](C)NP(=O)(OC[C@@H]1C=C[C@H](n2cnc3c(NC4CC4)nc(N)nc32)C1)Oc1ccccc1 (stereo partly drawn) [Compound 1647, (1S,4R)-4-(2-amino-6-cyclopropylamino-9H-purin-9-yl)-2-cyclopentene-1-methanol O-Phenyl-(n-butoxy-L-alaninyl)-phosphate] | 0.17 µM | 0.085 µM | 8.23 µM | >4 | 0.62 µM | –
9 | CCCCCOC(=O)[C@H](C)NP(=O)(OC[C@@H]1C=C[C@H](n2cnc3c(NC4CC4)nc(N)nc32)C1)Oc1ccccc1 (stereo partly drawn) [Compound 1706, (1S,4R)-4-(2-amino-6-cyclopropylamino-9H-purin-9-yl)-2-cyclopentene-1-methanol 0-Phenyl-(n-pentyloxy-L-alaninyl)-phosphate] | 0.08 µM | 0.065 µM | 16.4 µM | >4 | 1.45 µM | –
10 | Nc1nc(NC2CC2)c2ncn([C@H]3C=C[C@@H](CO)C3)c2n1 [Abacavir, (1S,4R)-4-[2-anino-6-(cyclopropylamino)-9H-purin-9-yl]-2-cyclopentene-1-methanol, reference compound] | – | – | – | – | – | EC50 [2, 16]: 3 µM; EC50 [3, 17]: 1.9 µM; CC50 at 4 days [7, 18]: 78 µM
11 | COC(=O)[C@H](CC1CCCCC1)NP(=O)(OC[C@@H]1C=C[C@H](n2cnc3c(NC4CC4)nc(N)nc32)C1)Oc1ccccc1 (stereo partly drawn) [Compound 1709, (1 S,4R)-4-(2-amino-6-cyclopropylamino-9H-purin-9-yl)-2-cyclopentene-1-methanol O-Phenyl-(methoxy-3-cyclohexane-L-alaninyl)-phosphate] | 2 µM | 1.2 µM | 16 µM | >4 | 1.72 µM | –
12 | COC(=O)C(CC(C)C)NP(=O)(OC[C@@H]1C=CC(n2cnc3c(NC4CC4)nc(N)nc32)C1)Oc1ccccc1 (stereo partly drawn) [Compound 1718] | – | – | – | >20 | 8.84 µM | EC50 [2, 14]: 1.48 µM; EC50 [3, 15]: 0.85 µM; CC50 [7, 13]: 22 µM
13 | COC(=O)[C@H](CCSC)NP(=O)(OC[C@@H]1C=C[C@H](n2cnc3c(NC4CC4)nc(N)nc32)C1)Oc1ccccc1 (stereo partly drawn) [Compound 1715, (1S,4R)-4-(2-amino-6-cyclopropylamino-9H-purin-9-yl)-2-cyclopentene-1-methanol O-(phenylmethoxy-L-methionyl phosphate)] | 2.73 µM | 1.15 µM | 48.9 µM | >20 | 10.2 µM | –
14 | C[C@H](NP(=O)(OC[C@@H]1C=CC(n2cnc3c(NC4CC4)nc(N)nc32)C1)Oc1ccccc1)C(=O)OCC1CCCC1 (stereo partly drawn) [Compound 1722] | – | – | – | – | – | EC50 [2, 14]: 0.48 µM; EC50 [3, 15]: 0.13 µM; CC50 [7, 13]: 15.2 µM
15 | CC(C)OC(=O)[C@H](C)NP(=O)(OC[C@@H]1C=C[C@H](n2cnc3c(NC4CC4)nc(N)nc32)C1)Oc1ccccc1 (stereo partly drawn) [Compound 1661, (1S,4R)-4-(2-amino-6-cyclopropylamino-9H-purin-9-yl)-2-cyclopentene-1-methanol O-Phenyl-(i-propoxy-L-alaninyl)-phosphate] | 0.85 µM | 0.5 µM | 9.18 µM | ≧20 | 2.75 µM | –
16 | Nc1nc2c(ncn2[C@H]2C=C[C@@H](CO)C2)c(=O)[nH]1 [(1R, 4S)-9-{4-(hydroxymethyl)-2-cyclopenten-1-yl]guanine, reference compound] | – | – | – | – | – | EC50 [2, 16]: 2.3 µM; EC50 [3, 17]: 2 µM; CC50 at 4 days [7, 18]: 157 µM
17 | C[C@H](NP(=O)(OC[C@@H]1C=C[C@H](n2cnc3c(NC4CC4)nc(N)nc32)C1)Oc1ccccc1)C(=O)OC(C)(C)C (stereo partly drawn) [Compound 1645, (1S,4R)-4-(2-amino-6-cyclopropylamino-9H-purin-9-yl)-2-cyclopentene-1-methanol O-(phenyl-tertbutyloxy-L-alaninyl)-phosphate] | 6 µM | 3.7 µM | 33 µM | >20 | 11.7 µM | –
18 | (1S,4R)-4-(2-amino6cyclopropyl-2 -amino-9H-purin-9-yl)-2-cyclopentene-1-methanol O-((P-(2 2-dimethoxy-L-propionic acid methyl ester)-phenyl)methoxyalaninyl phosphate) [Compound 1671] | 0.12 µM | 0.1 µM | 12.1 µM | >20 | 9.2 µM | –
19 | CC(C)COC(=O)[C@H](C)NP(=O)(OC[C@@H]1C=C[C@H](n2cnc3c(NC4CC4)nc(N)nc32)C1)Oc1ccccc1 (stereo partly drawn) [Compound 1672, (1S,4R)-4-(2-:amino-6-cyclopropylamino-9H-purin-9-yl-2-cyclopentene-1-methanol O-(phenyl (2-methylpropyl)oxyalaninyl phosphate)] | 0.1 µM | 0.09 µM | 14.4 µM | >4 | 1.98 µM | –
